Source: US20080070909A1, “ENANTIOMERICALLY PURE BETA AGONISTS, MANUFACTURING AND USE THEREOF” (priority 2006, published 2008)

**Q.** With `CCC1(CC)OC(=O)N(CCC(C)(C)NCC(O)c2ccc(O)c(NS(C)(=O)=O)c2)c2ccccc21` (stereo not shown) [Example 10, N-(5-{2-[3-(4,4-diethyl-2-oxo-4H-benzo[d][1,3]oxazin-1-yl)-1,1-dimethyl-propylamino]-1-hydroxy-ethyl}-2-hydroxy-phenyl)-methanesulphonamide] as the compound, how does the melting point read?
**A.** 168 °C
